Assay [1] has as its target T1, GABA-A receptor; alpha-1/beta-2/gamma-2 (Homo sapiens) (UniProt P14867+P47870+P18507). The conditions noted are these: HEK293.
Assay [2] has as its target T2, Gamma-aminobutyric acid receptor subunit alpha-1 (Homo sapiens) (UniProt P14867).
T2 sequence (whole entry): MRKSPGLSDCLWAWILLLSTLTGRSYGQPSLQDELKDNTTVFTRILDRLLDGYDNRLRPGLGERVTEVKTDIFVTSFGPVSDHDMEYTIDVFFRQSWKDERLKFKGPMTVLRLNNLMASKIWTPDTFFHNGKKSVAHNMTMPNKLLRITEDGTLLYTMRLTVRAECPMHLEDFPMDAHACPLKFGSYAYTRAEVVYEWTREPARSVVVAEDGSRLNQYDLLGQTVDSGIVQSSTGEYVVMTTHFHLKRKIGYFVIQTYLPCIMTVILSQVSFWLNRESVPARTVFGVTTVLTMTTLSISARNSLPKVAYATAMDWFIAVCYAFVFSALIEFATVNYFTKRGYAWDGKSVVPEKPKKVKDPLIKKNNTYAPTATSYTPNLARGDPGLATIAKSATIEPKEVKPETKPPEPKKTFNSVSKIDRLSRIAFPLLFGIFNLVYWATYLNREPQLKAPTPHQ
The conditions noted are these: HEK293.

Assay [3] concerns HEK293. The conditions noted are these: Homo sapiens.
In assay [4] the target is T1, GABA-A receptor; alpha-1/beta-2/gamma-2 (Homo sapiens). As to conditions: HEK293. The source holds these as a separate data set.
Assay [5] deals with HEK293. As to conditions: Homo sapiens. This is another data set of the same source.
The subject of assay [6] is HEK293. The experiment in a line: Activity of human GABA alpha-1-beta-2-gamma-2L S327A mutant in HEK293 cells expressing as-PKCepsilon assessed as inhibition of ethanol induced GABA current at 30 uM. It is filed as cell-based.
The species named for assay [7] is Mus musculus. The experiment in a line: Activity of human GABA alpha-1-beta-2-gamma-2S327 receptor in wild type mouse assessed as ethanol induced GABA current.
Assay [8] addresses Protein kinase C gamma type (Homo sapiens, UniProt P05129). The experiment in a line: Inhibition of human PKCgamma.
Assay [9] concerns the target Protein kinase C delta type (Homo sapiens, UniProt Q05655). The experiment in a line: Inhibition of human PKCdelta.
Assay [10] deals with HEK293. The assay can be described thus: Activity of human GABA alpha-1-beta-2-gamma-2S327 receptor in HEK293 cells expressing as-PKCepsilon cells assessed as induction of ethanol induced GABA current. The assay is classed as cell-based.
The target of assay [11] is T3, Protein kinase C epsilon type (Homo sapiens, UniProt Q02156).
T3 sequence (Q02156 whole entry): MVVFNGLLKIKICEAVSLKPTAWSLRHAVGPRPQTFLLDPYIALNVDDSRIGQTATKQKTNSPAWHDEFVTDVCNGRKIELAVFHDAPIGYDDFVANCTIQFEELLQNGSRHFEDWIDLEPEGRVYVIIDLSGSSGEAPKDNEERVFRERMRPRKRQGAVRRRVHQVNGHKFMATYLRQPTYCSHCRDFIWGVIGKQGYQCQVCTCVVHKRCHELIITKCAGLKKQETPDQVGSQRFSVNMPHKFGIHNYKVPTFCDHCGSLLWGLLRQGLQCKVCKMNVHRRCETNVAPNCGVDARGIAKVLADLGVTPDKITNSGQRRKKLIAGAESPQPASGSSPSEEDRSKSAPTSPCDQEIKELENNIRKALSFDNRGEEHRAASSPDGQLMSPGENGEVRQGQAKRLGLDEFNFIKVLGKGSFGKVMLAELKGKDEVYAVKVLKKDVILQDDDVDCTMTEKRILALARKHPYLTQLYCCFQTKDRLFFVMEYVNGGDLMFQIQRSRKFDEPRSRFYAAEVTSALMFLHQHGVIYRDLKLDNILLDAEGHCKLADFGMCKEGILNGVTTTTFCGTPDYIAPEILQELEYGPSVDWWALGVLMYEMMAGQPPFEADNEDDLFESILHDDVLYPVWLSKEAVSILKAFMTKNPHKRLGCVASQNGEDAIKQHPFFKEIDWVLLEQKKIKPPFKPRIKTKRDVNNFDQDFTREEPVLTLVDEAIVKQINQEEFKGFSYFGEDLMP
The assay can be described thus: Inhibition of human PKCepsilon.

Assay [12] has as its target Protein kinase C epsilon type (Homo sapiens, UniProt Q02156, M486A). The assay can be described thus: (§1) Inhibition of human PKCepsilon type M486A mutant.
Assay [13] relates to Mus musculus. The assay can be described thus: Induction of rotarod ataxia in PKCepsilon deficient mouse at 1 mg/kg. More on the design: dose 1 mg/kg. The assay is classed as functional, organism-based. A general note: In the rotarod test animals must keep their balance on a rotating rod.
The subject of assay [14] is T4, Protein kinase C epsilon type (Homo sapiens), Q02156 [M486A].
T4 sequence (whole entry): T3 sequence (Q02156 whole entry) with M486A
The assay is described as §1.

The structures appear in SMILES notation. Changes are numbered by the printed parent chain. Calls of active or inactive are those of the source. No cut-off for these calls is given here.

In general, IC50 refers to the concentration that inhibits the measured activity by half. A high value points to weaker potency in that assay.

Protein kinase C epsilon type (Homo sapiens, UniProt Q02156, M486A), sequence (Q02156 whole entry M486A): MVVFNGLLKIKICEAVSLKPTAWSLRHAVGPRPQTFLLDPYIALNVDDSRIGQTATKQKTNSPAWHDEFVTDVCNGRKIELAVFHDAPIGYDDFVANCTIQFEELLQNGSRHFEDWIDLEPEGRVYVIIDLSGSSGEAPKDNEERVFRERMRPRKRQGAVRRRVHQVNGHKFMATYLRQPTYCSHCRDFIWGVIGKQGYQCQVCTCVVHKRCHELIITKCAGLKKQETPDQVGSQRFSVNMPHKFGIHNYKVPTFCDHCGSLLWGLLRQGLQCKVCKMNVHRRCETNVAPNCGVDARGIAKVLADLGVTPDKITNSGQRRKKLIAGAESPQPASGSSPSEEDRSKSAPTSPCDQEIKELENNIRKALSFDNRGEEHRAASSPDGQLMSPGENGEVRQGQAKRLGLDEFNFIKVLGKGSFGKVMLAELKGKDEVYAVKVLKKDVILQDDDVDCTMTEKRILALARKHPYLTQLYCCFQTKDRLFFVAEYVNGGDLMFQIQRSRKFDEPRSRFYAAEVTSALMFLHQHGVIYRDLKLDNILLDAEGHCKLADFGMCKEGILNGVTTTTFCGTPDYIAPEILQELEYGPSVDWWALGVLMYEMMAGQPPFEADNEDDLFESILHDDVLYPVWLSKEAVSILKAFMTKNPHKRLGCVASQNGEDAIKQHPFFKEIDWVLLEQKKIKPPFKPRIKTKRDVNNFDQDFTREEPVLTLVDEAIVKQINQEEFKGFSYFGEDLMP
Protein kinase C delta type, sequence (Q05655 whole entry): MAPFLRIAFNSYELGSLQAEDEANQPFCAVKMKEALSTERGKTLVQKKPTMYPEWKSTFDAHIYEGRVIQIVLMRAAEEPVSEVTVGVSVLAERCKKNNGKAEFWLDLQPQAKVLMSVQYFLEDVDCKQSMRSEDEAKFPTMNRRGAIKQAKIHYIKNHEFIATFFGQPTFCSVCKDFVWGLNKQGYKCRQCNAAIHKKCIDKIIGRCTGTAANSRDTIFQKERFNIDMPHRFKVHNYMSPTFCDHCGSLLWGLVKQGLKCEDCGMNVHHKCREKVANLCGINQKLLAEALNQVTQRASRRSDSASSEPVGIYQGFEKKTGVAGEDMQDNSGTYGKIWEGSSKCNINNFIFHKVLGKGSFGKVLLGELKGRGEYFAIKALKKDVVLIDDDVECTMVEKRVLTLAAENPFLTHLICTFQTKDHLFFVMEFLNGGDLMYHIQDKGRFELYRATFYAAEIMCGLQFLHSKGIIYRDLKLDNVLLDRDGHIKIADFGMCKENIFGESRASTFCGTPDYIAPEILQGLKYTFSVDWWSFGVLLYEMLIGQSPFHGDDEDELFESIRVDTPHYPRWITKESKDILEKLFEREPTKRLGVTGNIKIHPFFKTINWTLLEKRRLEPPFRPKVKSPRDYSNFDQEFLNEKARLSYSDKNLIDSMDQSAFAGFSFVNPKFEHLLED

On to `CN1C(=O)CN=C(c2ccccc2F)c2cc([N+](=O)[O-])ccc21`, for which the logEC50 in assay [1] was determined as 1.46; in assay [2], 1.99; in [3], 1.8; in assay [4], 1.46; in assay [5], 1.59.
As for `CN1CCc2cc3c(cc2[C@H]1[C@@H]1OC(=O)c2c1ccc1c2OCO1)OCO3`, the result in assay [6] was Active.
`CN1C(=O)CN=C(c2ccccc2)c2cc(Cl)ccc21`: in assay [7], the Activity was 75%.
Take `CC(C)(C)n1nc(-c2cccc3ccccc23)c2c(N)ncnc21`: the IC50 is greater than 100000 nM in assay [8], greater than 100000 nM in assay [9], greater than 100000 nM in assay [11] and 21 nM in [12]. Besides, the outcome in assay [10] was Active.
With `CN(C)CCCn1cc(C2=C(c3c[nH]c4ccccc34)C(=O)NC2=O)c2ccccc21` [GF-109203], the 50% inhibitory concentration (IC50) in assay [8] came to 30 nM; in assay [9], 32 nM; in assay [11], 6 nM; in [12], 12 nM.
In the case of `Cc1ccc(-c2nc3ccc(C)cn3c2CC(=O)N(C)C)cc1`, the result in [13] and in assay [14] was Active.

The record behind these values is ChEMBL document CHEMBL1156516, “Protein kinase C epsilon regulates gamma-aminobutyrate type A receptor sensitivity to ethanol and benzodiazepines through phosphorylation of gamma2 subunits” (J Biol Chem, 2007).
